Data published in patent US20090286834A1, “Pyridine Analogues VI” (AstraZeneca AB, priority 2006, published 2009).

Biological target: T1, P2Y12 receptor (Homo sapiens, UniProt Q9H244)
T1 construct: expressed in transfected cells; host or cells: CHO cells (membranes)
Experiment: Functional inhibition of 2-Me-S-ADP induced P2Y12 signalling (35S-GTPγS, membranes from P2Y12 transfected CHO-cells)
Assay type: biochemical
Settings: EC80 concentration of agonist 2-methyl-thio-adenosine diphosphate, 30° C. for 45 min
Experimental: Functional inhibition of the P2Y12 receptor can be measured by in vitro assays using cell membranes from P2Y12 transfected CHO-cells, the methodology is indicated below.
Functional inhibition of 2-Me-S-ADP induced P2Y12 signalling: 5 μg of membranes were diluted in 200 μl of 200 mM NaCl, 1 mM MgCl2, 50 mM HEPES (pH 7.4), 0.01% BSA, 30 μg/ml saponin and 10 μM GDP. To this was added an EC80 concentration of agonist (2-methyl-thio-adenosine diphosphate), the required concentration of test compound and 0.1 μCi ^35S-GTPγS. The reaction was allowed to proceed at 30° C. for 45 min. Samples were then transferred on to GF/B filters using a cell harvester and washed is with wash buffer (50 mM Tris (pH 7.4), 5 mM MgCl2, 50 mM NaCl). Filters were then covered with scintilant and counted for the amount of ^35S-GTPγS retained by the filter. Maximum activity was that determined in the presence of the agonist and minimum activity in the absence of the agonist following subtraction of the value determined for non-specific activity. The effect of compounds at various concentrations was plotted according to the equation
y=A+((B−A)/(1+((C/x)̂D)))
and IC50 estimated where A is the bottom plateau of the curve i.e. the final minimum y value B is the top of the plateau of the curve i.e. the final maximum y value C is the x value at the middle of the curve. […]

T1 sequence (Q9H244 whole entry): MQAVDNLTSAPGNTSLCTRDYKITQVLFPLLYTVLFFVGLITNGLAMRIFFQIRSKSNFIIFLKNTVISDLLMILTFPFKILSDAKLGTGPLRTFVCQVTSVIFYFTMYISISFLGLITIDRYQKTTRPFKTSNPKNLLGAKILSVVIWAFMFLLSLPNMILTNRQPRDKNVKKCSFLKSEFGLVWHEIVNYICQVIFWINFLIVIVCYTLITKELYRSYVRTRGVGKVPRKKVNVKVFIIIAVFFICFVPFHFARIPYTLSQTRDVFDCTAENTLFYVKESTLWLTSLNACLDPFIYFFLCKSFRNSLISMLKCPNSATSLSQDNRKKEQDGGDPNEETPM

CCOC(=O)c1cc(C#N)c(NC2CCC(C(=O)NS(=O)(=O)c3ccc(Cl)s3)C2)nc1C(F)(F)F (stereo not shown) [Example 3, Ethyl 6-{[3-({[(5-chloro-2-thienyl)sulfonyl]amino}carbonyl)cyclopentyl]amino}-5-cyano-2-(trifluoromethyl)nicotinate]
IC50: 810 nM
